The record followed here is patent US12692274B2, “Tetrahydroisoquinoline derivatives for the treatment of red blood disorders and inflammatory diseases” (Sanofi, priority 2020, dated 2026).

As usually defined, the EC50 is the midpoint of the concentration-response curve. By IC50 is commonly meant the concentration that gives 50% inhibition. Low readings indicate inhibition by little substance, high ones a need for much substance.

Experiment [1] deals with NQO1 activation in BEAS-2B cells. The experiment is described as follows: BEAS-2B cellular MTT assay of NQO1 activation, 0% HSA. Format: cell-based. The method in brief: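 For the 0% HSA condition, cells were seeded into collagen plates in HSA-free medium. Culture was BEAS-2B in BEBM plus BEGM SingleQuots lacking GA-1000, held under 70% confluence, at a seeding density reaching 95-100% confluence by 48 h.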
On the technique in general: Tetrazolium dyes change colour on reduction, which living cells bring about.

The test system is the same in experiment [2]. The experiment is described as follows: BEAS-2B cellular MTT assay of NQO1 activation, 0.3% HSA. Format: cell-based. Put shortly:
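MTT read-out in BEAS-2B cells grown in BEBM with SingleQuots, no GA-1000, kept below 70% confluence; plates coated with collagen, with 0.3% or 0% HSA medium, seeded to 95-100% confluency at 48 h, 37 °C, 5% CO2.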

Experiment [3] deals with HIS-Keap1 full length / Biotin-Nrf2 (16-mer) (Homo sapiens, UniProt Q14145). The experiment is described as follows: biochemical.
HIS-Keap1 full length / Biotin-Nrf2 (16-mer), sequence (Q14145 whole entry): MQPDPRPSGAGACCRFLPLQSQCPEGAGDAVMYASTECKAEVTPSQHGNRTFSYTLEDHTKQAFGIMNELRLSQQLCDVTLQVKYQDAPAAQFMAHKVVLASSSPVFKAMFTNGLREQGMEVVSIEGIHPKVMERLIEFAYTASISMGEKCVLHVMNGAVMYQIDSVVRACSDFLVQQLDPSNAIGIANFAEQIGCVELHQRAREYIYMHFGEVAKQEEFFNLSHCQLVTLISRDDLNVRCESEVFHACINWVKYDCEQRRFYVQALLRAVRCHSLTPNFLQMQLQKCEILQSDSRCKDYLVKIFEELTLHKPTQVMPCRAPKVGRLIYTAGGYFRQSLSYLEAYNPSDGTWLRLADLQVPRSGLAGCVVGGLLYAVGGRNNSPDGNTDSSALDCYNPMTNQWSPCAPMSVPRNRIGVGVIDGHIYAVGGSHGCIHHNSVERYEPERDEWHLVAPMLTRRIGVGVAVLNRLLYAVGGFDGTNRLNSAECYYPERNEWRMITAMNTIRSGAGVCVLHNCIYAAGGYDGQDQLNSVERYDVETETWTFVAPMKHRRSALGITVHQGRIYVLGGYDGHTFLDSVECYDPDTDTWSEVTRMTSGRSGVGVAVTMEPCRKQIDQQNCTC
[4] abbreviates: Homo sapiens, Serum Free W, read-out: BEAS EC50 (nM) Serum Free W.
The mark [5] stands for this setting: Serum Free W, read-out: BEAS EC50 (nM) Serum Free W.
The mark [6] stands for this setting: BEAS+ W, read-out: BEAS+ W EC50.
Setting [7] is: Homo sapiens, BEAS+ W, read-out: BEAS+ W EC50.
Where [8] appears, read: Homo sapiens, serum free, read-out: BEAS EC50 (nM) serum free.
Setting [9] is: serum free, read-out: BEAS EC50 (nM) serum free.
[10] abbreviates: Homo sapiens, BEAS+, read-out: BEAS+ EC50.

Several values for one entry are separate records, joined by “and”; a condition that tells them apart may be missing. Identical values can stand only once.

As for `Cc1c2ccc3c1nnn3CCCCCc1ccc3c(c1)cc(n3C)C(=O)N1CCc3ccc(cc3C1)[C@@H]2[C@H](C)C(=O)O` (racemic) [Compound 113], the EC50 came to 1.6 nM in experiment [1] (setting [4]), 1.8 nM in experiment [1] (setting [5]), 48.7 nM in experiment [2] (setting [6]) and 62.7 nM in experiment [2] (setting [7]). Also, the IC50 in experiment [3] is 1.1 nM and 0.9 nM.

On to `Cn1c2cc3cc(cnc31)CCCCCOc1ccc(cn1)C(CC(=O)O)c1ccc3c(c1)CN(CC3)C2=O` (racemic) [Compound 158, 2-(33-methyl-2-oxo-15-oxa-1,7,17,33-tetrazahexacyclo[19.5.3.216,19.13,6.15,9.024,28]tritriaconta-3,5,7,9(32),16,18,21(29),22,24(28),30-decaen-20-yl)acetic Acid], for which the EC50 amounted to 18.2 nM in experiment [1] (setting [8]); 22.1 nM in experiment [1] (setting [9]); 400 nM in experiment [2] (BEAS+, read-out: BEAS+ EC50); 403 nM in experiment [2] (setting [10]). In experiment [3], the IC50 is 3.6 nM and 3.2 nM.

In the case of `Cc1c2ccc3c1nnn3CCCCCCc1ccc(cc1)C(=O)N1CCc3ccc(cc3C1)[C@@H]2[C@H](C)C(=O)O` (racemic) [Compound 200], the EC50 in experiment [1] (setting [8]) came to 3.4 nM; in experiment [1] (setting [9]), 6.5 nM; in experiment [2] (BEAS+, read-out: BEAS+ EC50) it was 9.3 nM; in experiment [2] (setting [10]) it was 9.5 nM. In addition, in experiment [3], the IC50 is 87.3 nM and 86.3 nM.

In the case of `C[C@H](C(=O)O)[C@@H]1c2ccc(nc2)OCCCCCc2ccc(cc2)C(=O)N2CCc3ccc1cc3C2` (single isomer, unassigned) [Compound 127], the 50% effective concentration (EC50) in experiment [1] (setting [8]) was 0.3 nM; in experiment [2] (BEAS+, read-out: BEAS+ EC50), 0.6 nM; in experiment [2] (setting [10]) it was 0.4 nM. Also, the IC50 in experiment [3] is 3.8 nM and 3.9 nM.

Consider `Cc1c2ccc3c1nnn3CCCCCCc1ccc3c(c1)cc(n3C)C(=O)N1CCc3ccc(cc3C1)[C@@H]2[C@H](C)C(=O)O` [Compound 34], for which the EC50 in experiment [1] (setting [4]) was 3.6 nM; in experiment [1] (setting [5]) it was 3.8 nM; in experiment [2] (setting [6]), 189 nM; in experiment [2] (setting [7]) it was 190 nM. Moreover, in experiment [3], the IC50 was 1.7 nM and 0.6 nM.

On to `O=C(O)C[C@H]1c2cnc(nc2)OCC/C=C/Cc2c(F)c(F)c(c(F)c2F)C(=O)N2CCc3ccc1cc3C2` [Compound 35], for which the EC50 in experiment [1] (setting [4]) is more than 1000 nM; in experiment [2] (setting [7]), more than 10000 nM. In experiment [3], the IC50 was 840 nM and 662 nM.

As for `Cc1c2cnc3c1nnn3CCCCCCc1c(F)c(F)c(c(F)c1F)C(=O)N1CCc3ccc(cc3C1)[C@@H]2[C@@H](C)C(=O)O` [Compound 36], the concentration for a half-maximal effect (EC50) in experiment [1] (setting [4]) came to 35 nM; in experiment [1] (setting [5]), 36.7 nM; in experiment [2] (setting [6]), 95.4 nM; in experiment [2] (setting [7]), 184 nM. The half-inhibitory concentration (IC50) in experiment [3] is 12.7 nM and 2.5 nM.

`Cc1c2ccc3c1nnn3CCCCCCc1ccc(cc1OC(F)F)C(=O)N1CCc3ccc(cc3C1)[C@@H]2CC(=O)O` [Compound 37]: the EC50 in experiment [1] (setting [4]) was determined as 18.1 nM; in experiment [1] (setting [5]) it was 18.2 nM; in experiment [2] (setting [6]), 72.3 nM; in experiment [2] (setting [7]), 100 nM. In addition, in experiment [3], the 50% inhibitory concentration (IC50) was 1 nM and 0.8 nM.

For `Cc1c2ccc3c1nnn3CCCCCc1ccc(cc1OC(F)F)C(=O)N1CCc3ccc(cc3C1)[C@@H]2CC(=O)O` [Compound 38], the half-maximal effective concentration (EC50) in experiment [1] (setting [4]) is 4.8 nM; in experiment [1] (setting [5]), 4.5 nM; in experiment [2] (setting [6]) it was 17 nM; in experiment [2] (setting [7]) it was 15 nM. Moreover, in experiment [3], the IC50 was 0.4 nM and 0.3 nM.

With `Cc1c2ccc3c1nnn3CCCCCCc1ccc3c(c1)cc(n3CC(F)F)C(=O)N1CCc3ccc(cc3C1)[C@@H]2CC(=O)O` [Compound 39], the EC50 in experiment [1] (setting [4]) was 5.9 nM; in experiment [1] (setting [5]) it was 4.2 nM and 4.3 nM; in experiment [2] (setting [6]), 531 nM and 590 nM; in experiment [2] (setting [7]), 492 nM. Moreover, in experiment [3], the IC50 was 1 nM and 1.1 nM.

Regarding `O=C(O)C[C@@H]1c2cnc(nc2)OCC/C=C/Cc2c(F)c(F)c(c(F)c2F)C(=O)N2CCc3ccc1cc3C2` [Compound 40], the EC50 was more than 1000 nM in experiment [1] (setting [4]) and 3580 nM in experiment [2] (setting [7]). Besides, the IC50 in experiment [3] is 46.2 nM and 53.6 nM.

Take `COc1cc2ccc1C(=O)N1CCc3ccc(cc3C1)C(CC(=O)O)c1cnc3c(nnn3CCCCC2)c1C` (stereo not drawn) [Compound 144]: the figures for the EC50 in experiment [2] (setting [6]) and in experiment [2] (setting [7]) were 60.2 nM and 32.4 nM, respectively. For the same compound, the concentration for half-maximal inhibition (IC50) in experiment [3] is 0.7 nM and 0.6 nM.

Take `O=C(O)CC1c2ccc3c(c2)CN(CC3)C(=O)c2ccc(cc2F)CCCCCCn2nnc3c(Cl)c1ccc32` (stereo not drawn) [Compound 148]: the concentration giving a half-maximal response (EC50) in experiment [2] (BEAS+, read-out: BEAS+ EC50) was 0.3 nM. The half-maximal inhibitory concentration (IC50) in experiment [3] is 0.3 nM and 0.4 nM and 0.8 nM and 0.7 nM.

As for `O=C(O)CC1c2cnc(nc2)OCCCCc2ccc(cc2Cl)C(=O)N2CCc3ccc1cc3C2` (stereo not drawn) [Compound 221], the EC50 in experiment [2] (setting [10]) is more than 10000 nM. In experiment [3], the midpoint of inhibition, the IC50, lay at 216 nM.

As for `O=C(O)CC1c2cnc(nc2)OCCCCc2cc(F)c(c(F)c2)C(=O)N2CCc3ccc1cc3C2` (stereo not drawn) [Compound 242], the EC50 in experiment [2] (setting [10]) is more than 10000 nM. The same compound yielded an IC50 in experiment [3] of more than 1000 nM.

Take `O=C(O)CC1c2cnc(nc2)OCCCCCc2cc(F)c(c(F)c2)C(=O)N2CCc3ccc1cc3C2` (stereo not drawn) [Compound 246]: the EC50 in experiment [2] (BEAS+, read-out: BEAS+ EC50) amounted to 1490 nM; in experiment [2] (setting [10]), 992 nM. In addition, half-maximal inhibition in experiment [3] (IC50) was put at 5.3 nM.

Turning to `Cc1cc2ccc1C(=O)N1CCc3ccc(cc3C1)[C@H](CC(=O)O)c1ccc3c(c1)nnn3CCCCCCO2` [Compound 326], the concentration for a half-maximal effect (EC50) in experiment [2] (setting [10]) is 804 nM. For the same compound, in experiment [3], the IC50 is 2.7 nM and 0.8 nM.

In the case of `COC(=O)CC1c2ccc3c(c2)CN(CC3)C(=O)c2ccc(cc2C)OCCCCCn2nnc3cc1ccc32` (stereo not drawn) [Compound 333], in experiment [2] (setting [10]), the half-maximal effective concentration (EC50) is more than 10000 nM. Further, the half-maximal inhibitory concentration (IC50) in experiment [3] is 1820 nM and > 1000 nM and 1220 nM.

As for `Cc1c2ccc3c1nnn3CCOCCCc1ccc(c(F)c1)C(=O)N1CCc3ccc(cc3C1)[C@H]2CC(=O)O` [Compound 363], the EC50 was 711 nM in experiment [2] (setting [6]) and 682 nM in experiment [2] (setting [7]). Moreover, in experiment [3], the half-inhibitory concentration (IC50) was 9 nM and 8.5 nM.

`Cc1c2ccc3c1nnn3CCCOCCOc1cc(F)c(c(F)c1)C(=O)N1CCc3ccc(cc3C1)C2CC(=O)O` (stereo not drawn) [Compound 368, 2-(20,32-difluoro-34-methyl-22-oxo-14,17-dioxa-8,9,10,23-tetrazahexacyclo[21.5.3.218,21.13,7.06,10.026,30]tetratriaconta-1(29),3(34),4,6,8,18(33),19,21(32),26(30),27-decaen-2-yl)acetic Acid]: the EC50 was 140 nM in experiment [2] (BEAS+, read-out: BEAS+ EC50) and 114 nM in experiment [2] (setting [10]). In experiment [3], the IC50 was 0.1 nM and 0.2 nM.

For `Cc1cc2ccc1C(=O)N1CCc3ccc(cc3C1)C(CC(=O)O)c1ccc3c(nnn3CCCOCCO2)c1C` (stereo not drawn) [Compound 374], the values for the EC50 in experiment [2] (setting [6]) and in experiment [2] (setting [7]) were 297 nM and 284 nM, respectively. In addition, in experiment [3], 1 nM corresponded to half-maximal inhibition (IC50).

Regarding `Cc1c2ccc3c1nnn3CCCCc1ccc3ccc(cc3c1)C(=O)N1CCc3ccc(cc3C1)C2CC(=O)O` (stereo not drawn) [Compound 390], the half-maximal effective concentration (EC50) was 5770 nM in experiment [2] (BEAS+, read-out: BEAS+ EC50) and 3350 nM in experiment [2] (setting [10]). The IC50 in experiment [3] was 5.1 nM and 5.6 nM.

For the compound `Cc1c2ccc3c1nnn3CCC/C=C/COc1cnc(nc1)C(=O)N1CCc3ccc(cc3C1)C2CC(=O)O` (stereo not drawn) [Compound 400], the concentration giving a half-maximal response (EC50) came out at 29.3 nM in experiment [2] (BEAS+, read-out: BEAS+ EC50) and 31.6 nM in experiment [2] (setting [10]). For the same compound, in experiment [3], the IC50 was 2 nM.

As for `Cc1c2oc3cc(ccc13)OCCCCCn1nnc3c(C)c(ccc31)C(CC(=O)O)c1ccc3c(c1)CN(CC3)C2=O` (stereo not drawn) [Compound 401], the EC50 in experiment [2] (setting [10]) is 7110 nM. Further, the concentration for half-maximal inhibition (IC50) in experiment [3] is 6.1 nM and 6.5 nM.

As for `Cc1c2oc3cc(ccc13)OCCCCCCn1nnc3c(C)c(ccc31)C(CC(=O)O)c1ccc3c(c1)CN(CC3)C2=O` (stereo not drawn) [Compound 402], the EC50 in experiment [2] (setting [10]) is more than 10000 nM. The concentration for half-maximal inhibition (IC50) in experiment [3] was 58.7 nM and 57.7 nM.

Regarding `O=C(O)CC1c2ccc3c(c2)CN(CC3)C(=O)c2cccc(c2)OCCCCCCn2nnc3cc1ccc32` (stereo not drawn) [Compound 403], the concentration giving a half-maximal response (EC50) in experiment [2] (setting [10]) was more than 10000 nM. In experiment [3], the IC50 is 146 nM and 192 nM.
